{"source": "paper PMC8854749", "about": "“Celastrol Inhibits Canine Mammary Tumor Cells by Inducing Apoptosis via the Caspase Pathway” (Frontiers in Veterinary Science, 2022)", "assay_type_in_all_cases": "cell-based, canine", "key": {"MDCK cells": {"tested_on": "MDCK cells", "assay": "Cell Counting Kit-8 (CCK-8) cell viability, non-tumor cell line", "conditions": "for IC50: Canis lupus familiaris, MDCK cells (non-tumor canine cell line), CCK-8", "description": "CMT-7364, CIPp, and MDCK cells were plated in a 96-well plate with 2,000 cells per well and maintained in 5% CO2 at 37°C for 24 h until the cells adhered to the bottom. Then the medium was removed, the new media containing different concentrations (0, 0.1, 0.4, 0.6, 0.8, 1.2, and 1.6 μM) of celastrol were added, and incubated for 12, 24, 36, and 48 h. Ten microliters of the cell counting kit-8 (CCK-8) were added to each well for 1 h incubation. At each time point, the OD value was read by a microplate reader at 450 nm wavelength, and the cell viability with each drug concentration at different time points was calculated: cell relative viability=[(OD 450celastrol-OD 450blank) / (OD 450control-OD 450blank)] × 100%."}, "CIPp cells [1]": {"tested_on": "CIPp cells", "assay": "Annexin V-FITC/PI apoptosis detection, fluorescence microscope", "conditions": "0.3 μM or 0.9 μM, 24 h, vs control group", "description": "(§1) CMT-7364 and CIPp cells were seeded in a 6-well plate at a concentration of 1 × 10^5 cells/well, treated with different concentrations of celastrol (0, 0.3, 0.9 μM) for 24 h. Then cells were double-stained by Annexin V-FITC/PI, incubating at room temperature for 20 min in the dark, followed by observing with a fluorescence microscope. Green fluorescence represents Annexin V-FITC staining positive, and red fluorescence represents PI staining positive. Apoptotic cells were single-stained by green fluorescence, late apoptotic or necrotic cells were double-stained by green and red fluorescence, and normal cells were not stained by fluorescence. Finally, pictures of the cells were taken by a fluorescence microscope."}, "CMT-7364 cells [2]": {"tested_on": "CMT-7364 cells", "assay": "Annexin V-FITC/PI apoptosis detection, fluorescence microscope", "conditions": "0.3 μM or 0.9 μM, 24 h, vs control group", "description": "as §1"}, "CIPp cells [3]": {"tested_on": "CIPp cells", "assay": "Cell cycle distribution, PI staining, flow cytometry", "conditions": "24 h (0 μM: 12.0%)", "description": "(§2) To investigate whether celastrol inhibits the proliferation of canine mammary tumor cells by regulating the cell cycle, we treated canine mammary tumor cells with celastrol for 24 h, then stained cells with PI followed by flow cytometry to detect the percentage of different cell cycle phases. […] Furthermore, we detected the expression of mRNA and protein of cell cycle–related factors by qPCR and Western blotting."}, "CMT-7364 cells [4]": {"tested_on": "CMT-7364 cells", "assay": "Cell cycle distribution, PI staining, flow cytometry", "conditions": "24 h (0 μM: 5.6%)", "description": "as §2"}, "CMT-7364 cells [5]": {"tested_on": "CMT-7364 cells", "assay": "qPCR of Caspase-3, Caspase-9, p21, p27 mRNA (2^-ΔΔCt, β-actin reference)", "description": "After CMT-7364 and CIPp cells were treated with or without 0.9 μM celastrol for 24 h, TRIzol was used to isolate the total RNA of the cells. The RNA was then reverse transcribed into cDNA using a reverse transcriptase kit. A 20 μl reaction system was prepared according to the manufacturer's instructions and tested in the Real-Time PCR System (Long Gene Q1000, China). The results were analyzed by the 2^−ΔΔCt method: ΔΔCt = (target gene Ct of the experimental group-internal reference gene Ct of the experimental group)-(target gene Ct of the control group-internal reference gene Ct of the control group), β-actin was the internal reference gene."}, "CIPp cells [6]": {"tested_on": "CIPp cells", "assay": "Western blot of apoptosis- and cell cycle-related proteins", "conditions": "different concentrations, 24 h, Western blot", "description": "(§3) The CMT-7364 and CIPp cells were treated with different concentrations of Caspase inhibitor Z-V-F and/or celastrol for 24 h, and the cells were lysed with RIPA lysis buffer on ice. The protein was extracted according to the manufacturer's instructions, and protein concentration was determined by the BCA protein concentration assay kit. The loading amount of 20 μg protein in each group was separated by 10% SDS-PAGE, the separated protein was transferred to polyvinylidene fluoride membrane. After blocking with 5% skimmed milk for 1 h, the membrane was washed two times with 0.5% PBS-Tween 20 (PBS-T), then the membrane with the primary antibody was incubated overnight in a shaker at 4°C. Primary antibodies include β-actin (1:2,000), p65 (1:1,000), NF-κB (1:1,000), Caspase-9 (1:1,000), Caspase-3 (1:1,000), Bax (1:2,000), Bcl-2 (1:1,000), Cyclin D1 (1:1,000), p21 (1:1,000), and p27 (1:1,000). After washing 3 times with PBS-T buffer for 10 min each time, the membrane was incubated with HRP-conjugated secondary antibody at 37°C for 30 min. Secondary antibodies include anti-mouse IgG antibody (1:5,000), anti-rabbit IgG antibody (1:2,000~1:4,000). The membrane was washed 3 times with PBS-T for 10 min each time. Finally, it was detected by an enhanced chemiluminescence detection system, and the results were quantified by ImageJ."}, "CMT-7364 cells [7]": {"tested_on": "CMT-7364 cells", "assay": "Western blot of apoptosis- and cell cycle-related proteins", "conditions": "different concentrations, 24 h, Western blot", "description": "as §3"}, "[8]": {"conditions": "CMT-7364, 0.9 μM celastrol, SYBR"}, "[9]": {"conditions": "CMT-7364 cells, 0.9 μM, 24 h, qPCR, vs control"}, "[10]": {"conditions": "test 1, CMT-7364 cells, 0.9 μM, instrument sheet, CMT-7364 control RQ 1"}}}
{"compound": "CC1=C(O)C(=O)C=C2C1=CC=C1[C@@]2(C)CC[C@@]2(C)[C@@H]3C[C@](C)(C(=O)O)CC[C@]3(C)CC[C@]12C", "note": "[celastrol, Celastrol]", "values": [{"measurement": "IC50", "setting": "MDCK cells; 24 h", "value": 1810, "unit": "nM"}, {"measurement": "IC50", "setting": "MDCK cells; 48 h", "value": 1860, "unit": "nM"}, {"measurement": "proliferation", "setting": "MDCK cells; MDCK cells, concentration <1.2 μM", "value": "did not significantly inhibit"}, {"measurement": "green fluorescence (Annexin V-FITC, apoptotic cells)", "setting": "CIPp cells [1]", "value": "increased"}, {"measurement": "green fluorescence (Annexin V-FITC, apoptotic cells)", "setting": "CMT-7364 cells [2]", "value": "increased"}, {"measurement": "percentage of cell cycle G2/M phase", "setting": "CIPp cells [3]; 0.3 μM", "value": 21.9, "unit": "%"}, {"measurement": "percentage of cell cycle G2/M phase", "setting": "CIPp cells [3]; 0.9 μM", "value": 34.4, "unit": "%"}, {"measurement": "percentage of cell cycle G2/M phase", "setting": "CMT-7364 cells [4]; 0.3 μM", "value": 20.3, "unit": "%"}, {"measurement": "percentage of cell cycle G2/M phase", "setting": "CMT-7364 cells [4]; 0.9 μM", "value": 32.7, "unit": "%"}, {"measurement": "RQ Max, caspase-9", "setting": "CMT-7364 cells [5]; [8]", "value": 2.21}, {"measurement": "RQ Max, p-27", "setting": "CMT-7364 cells [5]; [8]", "value": 1.96}, {"measurement": "RQ Max, β-actin", "setting": "CMT-7364 cells [5]; [8]", "value": 1.84}, {"measurement": "RQ Min, caspase-9", "setting": "CMT-7364 cells [5]; [8]", "value": 0.45}, {"measurement": "RQ Min, p-21", "setting": "CMT-7364 cells [5]; [8]", "value": 0}, {"measurement": "RQ Min, p-27", "setting": "CMT-7364 cells [5]; [8]", "value": 0.51}, {"measurement": "RQ Min, β-actin", "setting": "CMT-7364 cells [5]; [8]", "value": 0.54}, {"measurement": "RQ, caspase-9", "setting": "CMT-7364 cells [5]; [8]", "value": 1}, {"measurement": "RQ, p-21", "setting": "CMT-7364 cells [5]; [8]", "value": 1}, {"measurement": "RQ, p-27", "setting": "CMT-7364 cells [5]; [8]", "value": 1}, {"measurement": "RQ, β-actin", "setting": "CMT-7364 cells [5]; [8]", "value": 1}, {"measurement": "mRNA expression level of Caspase-3", "setting": "CMT-7364 cells [5]; [9]", "value": "significantly up-regulated"}, {"measurement": "mRNA expression level of Caspase-9", "setting": "CMT-7364 cells [5]; [9]", "value": "significantly up-regulated"}, {"measurement": "mRNA expression level of p21", "setting": "CMT-7364 cells [5]; [9]", "value": "up-regulated"}, {"measurement": "mRNA expression level of p27", "setting": "CMT-7364 cells [5]; [9]", "value": "up-regulated"}, {"measurement": "RQ, caspase-3", "setting": "CMT-7364 cells [5]; [10]", "value": 0.26}, {"measurement": "RQ, caspase-9", "setting": "CMT-7364 cells [5]; [10]", "value": 0.29}, {"measurement": "RQ, p-21", "setting": "CMT-7364 cells [5]; [10]", "value": 0.53}, {"measurement": "RQ, p-27", "setting": "CMT-7364 cells [5]; [10]", "value": 0.19}, {"measurement": "RQ, p-27", "setting": "CMT-7364 cells [5]; test 2, CMT-7364 cells, 0.9 μM, instrument sheet, this sample is the calibrator (ΔΔCt 0.00), CMT-7364 control RQ 1.47", "value": 1}, {"measurement": "RQ, caspase-9", "setting": "CMT-7364 cells [5]; test 2, CMT-7364 cells, 0.9 μM, instrument sheet, this sample is the calibrator (ΔΔCt 0.00), CMT-7364 control RQ 25.61", "value": 1}, {"measurement": "RQ, p-21", "setting": "CMT-7364 cells [5]; test 2, CMT-7364 cells, 0.9 μM, instrument sheet, this sample is the calibrator (ΔΔCt 0.00), CMT-7364 control RQ 51.05", "value": 1}, {"measurement": "protein expression level of Bax", "setting": "CIPp cells [6]", "value": "significantly up-regulated"}, {"measurement": "protein expression level of Bcl-2", "setting": "CIPp cells [6]", "value": "significantly down-regulated"}, {"measurement": "protein expression level of Cleaved-Caspase-3", "setting": "CIPp cells [6]", "value": "significantly up-regulated"}, {"measurement": "protein expression level of Cleaved-Caspase-9", "setting": "CIPp cells [6]", "value": "significantly up-regulated"}, {"measurement": "protein expression level of Cyclin D1", "setting": "CIPp cells [6]", "value": "down-regulated"}, {"measurement": "protein expression level of NF-kB", "setting": "CIPp cells [6]", "value": "significantly down-regulated"}, {"measurement": "protein expression level of p21", "setting": "CIPp cells [6]", "value": "up-regulated"}, {"measurement": "protein expression level of p27", "setting": "CIPp cells [6]", "value": "up-regulated"}, {"measurement": "protein expression level of phosphorylated p65", "setting": "CIPp cells [6]", "value": "significantly down-regulated"}, {"measurement": "protein expression level of Bax", "setting": "CMT-7364 cells [7]", "value": "significantly up-regulated"}, {"measurement": "protein expression level of Bcl-2", "setting": "CMT-7364 cells [7]", "value": "significantly down-regulated"}, {"measurement": "protein expression level of Cleaved-Caspase-3", "setting": "CMT-7364 cells [7]", "value": "significantly up-regulated"}, {"measurement": "protein expression level of Cleaved-Caspase-9", "setting": "CMT-7364 cells [7]", "value": "significantly up-regulated"}, {"measurement": "protein expression level of Cyclin D1", "setting": "CMT-7364 cells [7]", "value": "down-regulated"}, {"measurement": "protein expression level of NF-kB", "setting": "CMT-7364 cells [7]", "value": "significantly down-regulated"}, {"measurement": "protein expression level of p21", "setting": "CMT-7364 cells [7]", "value": "up-regulated"}, {"measurement": "protein expression level of p27", "setting": "CMT-7364 cells [7]", "value": "up-regulated"}, {"measurement": "protein expression level of phosphorylated p65", "setting": "CMT-7364 cells [7]", "value": "significantly down-regulated"}]}
